From publication PMC9293909 (Nature Communications, 2022)
Where “and” joins values, the source holds several entries; their conditions need not be identical. Identical values can stand only once. Like-named read-outs stand apart in the source and are kept apart here. Values belong to the compound of their own block, whether it stands above or below them.

Experiments:
hA1R:Gi2 = hA1R:Gi2 (Homo sapiens, UniProt P30542); experiment: cAMP inhibition in PTX-treated CHO-K1-hA1R cells with PTX-insensitive Gi2; type: cell-based; conditions: inhibition of forskolin-stimulated cAMP
Method: Cells were then incubated for 24 h before addition of 100 ng/ml PTX, to inhibit activity of endogenous Gαi/o, and then incubated for a further 16-18 h. Transfected cells were then assayed as per cAMP inhibition experiments, but co-stimulated with agonist and 100 nM forskolin.

respiration (f, VT, VE) = experiment: Urethane-anaesthetised rat, respiration
Method: The femoral vein was catheterised for drug delivery.
Adult male Sprague–Dawley rats (400-500 g) were anaesthetised with urethane and instrumented as described above, with the exception that the arterial cannulation was not performed.
Changes in f, VT, and VE were measured. If the dosing occurred close to a respiratory event such as a sigh a second IV dose was administered, with 20 min recovery periods either side of the injection.

hA2AR = biological target: T1, hA2AR (Homo sapiens, UniProt P29274); experiment: cAMP accumulation at hA2AR; type: cell-based
T1 construct: expressed in transfected cells; host or cells: CHO-K1
Method: CHO cell lines expressing ARs of interest (including mutants of the hA1R) were routinely cultured in Ham’s F-12 nutrient mix supplemented with 10% foetal bovine serum (FBS), at 37 °C with 5% CO2, in a humidified atmosphere.

hA1R:Goa = biological target: T2, hA1R:Goa (Homo sapiens, UniProt P30542); experiment: TRUPATH G protein dissociation BRET assay, Goa; type: cell-based; conditions: Fig2h
T2 construct: cDNA resource centre (pcDNA3.1-A1R)
Method: Cells were plated in a density of 1,500,000 cells/well in a 6-well plate and grown in DMEM /F-12 GlutaMAX™ media (Thermo Fisher Scientific, UK) supplemented with 10% FBS (Sigma, UK) and 1% AA (Sigma, UK). After being grown overnight, cells in each well were transfected using polyethylenimine 25 kDa (PEI, Polysciences Inc., Germany) at a 6:1 ratio of PEI to DNA, diluted in 150 mM NaCl. […] Gɑ (either Goa-RLuc8, or Gob-RLuc8), Gβ3 and Gγ8-GFP2 constructs were purchased as part of the TRUPATH sensor kit from Addgene, pcDNA3.1-A1R was obtained from cDNA resource centre, and pcDNA3.1 (-) zeo was purchased from Invitrogen. After 24 h, cells were trypsinised and re-seeded onto poly-L-lysine (PLL)-coated white 96-well plates (Greiner, UK) at the density of 50,000 cells/well in a complete DMEM/F-12 medium. After grown overnight, the culture media was discarded and replaced with 80 μl assay buffer (1× Hank’s balanced salt solution (HBSS) with calcium, supplemented with 20 mM HEPES and 0.1% BSA at pH 7.4). The assay was started by adding 10 μl of coelenterazine 400a (Nanolight technology, USA) to a final concentration of 5 μM. The plates were then incubated in the dark for 5 min, prior to the addition of 10 μl compounds (in a range of 0.01 nM – 1 µM). […] BRET signal was recorded for 30 min on a Mithras LB940 plate reader allowing sequential integration of signal detected from GFP2 and Rluc8.

[1] = biological target: T3, hA1R R291^7.56 alanine mutant (Homo sapiens, UniProt P30542, R291A); experiment: cAMP inhibition, Flp-In-CHO hA1R R291A; type: cell-based; conditions: Fig4j
T3 construct: expressed in transfected cells
Source text: Cell lines were maintained using standard subculturing routines as guided by the European Collection of Cell Culture (ECACC) and checked annually for mycoplasma infection using an EZ-PCR mycoplasma test kit from Biological Industries (Kibbutz Beit-Haemek, Israel). To investigate the signalling properties of the rat A3R (rA3R) and mutants of the human A1R (hA1R), stable cell lines were generated using Flp-In-CHO cells (ThermoFisher - R75807). Untagged hA1R from sigNanoLuciferase (Nluc)-A1R in pcDNA3.1+ and untagged rA3R from sigNluc-A3R in pcDNA3.1 + (both gifted by Dr Steve Briddon (University of Nottingham)) were cloned into the pcDNA5/FRT expression vector (Thermo Fisher Scientific). Mutations within the hA1R were made using the QuikChange Lightening Site-Directed Mutagenesis Kit (Agilent Technologies) in accordance with the manufacturer’s instructions. Constructs for generating Goa/b interfering and scrambled peptides were generated by PCR and cloned into the BamHI/HindIII site of pcDNA3.1- as described in Gilchrist et al.[60],. Prior to the initiator codon a Kozak sequence was included for enhanced translation. The peptide sequences used were: for Goa […], for Gob […], and for the scrambled peptide […] was used. Constructs were sequenced to confirm fidelity. […]

[2] = Fig6g, average, n 4, CPA alone or CPA + BnOCPA
[3] = Fig6g, individual animal, CPA alone or CPA + BnOCPA

T3 sequence (P30542 whole entry R291A): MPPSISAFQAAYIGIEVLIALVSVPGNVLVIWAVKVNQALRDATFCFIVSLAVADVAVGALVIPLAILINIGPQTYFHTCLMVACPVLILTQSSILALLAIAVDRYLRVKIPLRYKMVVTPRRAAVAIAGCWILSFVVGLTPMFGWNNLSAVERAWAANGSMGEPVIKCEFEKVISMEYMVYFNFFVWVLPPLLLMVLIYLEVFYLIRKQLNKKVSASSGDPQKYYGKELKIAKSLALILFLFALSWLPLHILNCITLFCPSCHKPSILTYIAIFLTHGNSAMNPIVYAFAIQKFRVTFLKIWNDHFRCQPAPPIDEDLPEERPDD
T2 sequence (P30542 whole entry): as the sequence (P30542 whole entry R291A) above, with A291R counted along it
T2 sequence (P09471 2-354 partner limits assumed): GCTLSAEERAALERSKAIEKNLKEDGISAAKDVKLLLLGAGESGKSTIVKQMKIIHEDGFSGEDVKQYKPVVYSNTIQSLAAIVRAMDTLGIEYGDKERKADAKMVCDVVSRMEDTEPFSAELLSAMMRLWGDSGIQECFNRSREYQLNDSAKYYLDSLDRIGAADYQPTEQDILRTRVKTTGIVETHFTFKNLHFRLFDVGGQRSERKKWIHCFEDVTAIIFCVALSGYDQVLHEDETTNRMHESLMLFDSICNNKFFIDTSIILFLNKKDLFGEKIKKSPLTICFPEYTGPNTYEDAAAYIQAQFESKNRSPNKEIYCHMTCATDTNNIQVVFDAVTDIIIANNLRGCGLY
T2 sequence (P16520 whole entry partner): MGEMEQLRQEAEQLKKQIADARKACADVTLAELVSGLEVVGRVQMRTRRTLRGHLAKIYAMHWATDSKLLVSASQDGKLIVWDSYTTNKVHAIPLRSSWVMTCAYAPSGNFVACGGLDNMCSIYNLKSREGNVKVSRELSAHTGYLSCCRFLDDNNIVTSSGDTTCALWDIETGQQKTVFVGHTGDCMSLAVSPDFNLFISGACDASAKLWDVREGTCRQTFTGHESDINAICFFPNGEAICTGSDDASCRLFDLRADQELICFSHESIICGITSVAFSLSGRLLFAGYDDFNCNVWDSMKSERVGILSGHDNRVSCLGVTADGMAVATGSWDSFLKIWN
T2 sequence (Q9UK08 1-67 partner limits assumed): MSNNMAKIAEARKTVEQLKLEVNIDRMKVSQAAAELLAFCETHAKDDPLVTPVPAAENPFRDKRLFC
T1 sequence (P29274 whole entry): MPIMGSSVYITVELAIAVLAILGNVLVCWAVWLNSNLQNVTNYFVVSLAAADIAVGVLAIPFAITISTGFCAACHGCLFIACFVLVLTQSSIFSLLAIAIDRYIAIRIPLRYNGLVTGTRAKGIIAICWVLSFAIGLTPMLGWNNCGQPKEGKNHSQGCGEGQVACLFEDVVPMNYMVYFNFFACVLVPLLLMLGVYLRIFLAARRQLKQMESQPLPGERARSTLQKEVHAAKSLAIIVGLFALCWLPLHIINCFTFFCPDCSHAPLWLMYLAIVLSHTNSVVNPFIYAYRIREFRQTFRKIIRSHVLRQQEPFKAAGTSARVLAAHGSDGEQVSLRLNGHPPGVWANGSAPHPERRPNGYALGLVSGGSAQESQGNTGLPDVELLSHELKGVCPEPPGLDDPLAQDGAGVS
Chain of hA1R:Gi2 (P30542 whole entry): as the sequence (P30542 whole entry R291A) above, with A291R counted along it

Structure (SMILES): OC[C@H]1O[C@@H](n2cnc3c(NC4CCCC4)ncnc32)[C@H](O)[C@@H]1O [CPA, N^6-Cyclopentyladenosine]
Emax (hA1R:Gi2): -32.2%
tidal volume VT after injection (respiration (f, VT, VE); CPA 6 µg kg^−1 IV, resting 1.1 ± 0.1): 0.8 ± 0.1 mL
respiratory frequency f after injection (respiration (f, VT, VE); CPA 6 µg kg^−1 IV, resting 143 ± 11): 108 ± 10 BrPM
minute ventilation VE after injection (respiration (f, VT, VE); CPA 6 µg kg^−1 IV, resting 155 ± 28): 99 ± 19 mL/min
effect on Freq (difference from previous baseline) (respiration (f, VT, VE); CPA 6 µg kg^−1 alone): 52 ± 8 breaths/min
effect on VE (difference from previous baseline) (respiration (f, VT, VE); CPA 6 µg kg^−1 alone): 59 ± 9 mL/min
Frequency (respiration) (respiration (f, VT, VE); Fig6b, individual rat): 97.7 and 153.2 and 77.8 and 92.8 and 134.8 and 131.4 and 100.3 and 76.5
Frequency (respiration), Average (respiration (f, VT, VE); Fig6b, n 8): 108.1
VT (respiration (f, VT, VE); Fig6c, individual rat): 1 and 1.31 and 0.72 and 0.49 and 0.42 and 0.81 and 1.39
VT, Average (respiration (f, VT, VE); Fig6c, n 8): 0.82
Freq, Average (respiration (f, VT, VE); [2]): -52
VE, Average (respiration (f, VT, VE); [2]): -59
VT, Average (respiration (f, VT, VE); [2]): -0.065
Freq (respiration (f, VT, VE); [3]): -58 and -41 and -36 and -72
VE (respiration (f, VT, VE); [3]): -86 and -53 and -48 and -49
VT (respiration (f, VT, VE); [3]): -0.31 and 0.1 and -0.15
VE (respiration (f, VT, VE); Fig6d, individual rat): 110 and 203 and 69 and 42 and 63 and 139 and 46 and 116
VE, Average (respiration (f, VT, VE); Fig6d, n 8): 99

EC50 (hA2AR; half-maximal response, cAMP, read-out: pEC50 hA2AR (converted)): 3240 nM
Range hA2AR (hA2AR; range of response as percentage of response to 10 μM forskolin): 41.66 ± 6.1%
EC50 (hA1R:Goa; individual replicate, read-out: TRUPATH Goa potency (converted)): 64.6 nM and 83.2 nM and 81.3 nM and 37.2 nM and 27.5 nM and 44.7 nM and 30.2 nM
EC50 (hA1R:Goa; n 8, read-out: TRUPATH Goa potency, Average (converted)): 45.7 nM
IC50 ([1]; individual replicate, read-out: cAMP inhibition potency, 291A (converted)): 1.66 nM and 3.36 nM and 11.1 nM and 7.67 nM and 1.61 nM and 5.5 nM and 3.5 nM
IC50 ([1]; read-out: cAMP inhibition potency, 291A, Average (converted)): 3.98 nM
Structure (SMILES): OC[C@H]1O[C@@H](n2cnc3c(N[C@@H]4CCC[C@H]4O)ncnc32)[C@H](O)[C@@H]1O [HOCPA, (2 R,3 R,4 S,5 R)−2-(6-{[(1 R,2 R)−2-hydroxycyclopentyl]amino}−9H-purin-9-yl)−5-(hydroxymethyl)oxolane-3,4-diol]
